Results on 85 compounds are retold here after a melting point compilation (Tetko et al.).

Each structure is given as a SMILES string.

As to `CCCCc1ccc(N2C(=O)C=CC2=O)cc1`, the melting point – broadly, the temperature of the solid-liquid transition – lay within 40 to 44 °C.
`NC(=S)Nc1ccccc1Oc1ccccc1` gave a melting point of 125 to 127 °C.
The value for `CCOC(=O)c1cc(C)sc1NC(=O)CCl` was 104 to 106 °C.
To `N#Cc1cccc(Oc2ccc(N)cn2)c1` belongs 104 to 106 °C; to `Nc1ccc2nc(N3CCCC3)sc2c1`, 201 to 203 °C; to `O=C(O)CSc1ccc(F)cc1F`, 73 to 75 °C.
`CCOC(=O)c1cc(Br)cc(Cl)c1N` displayed a melting point of 49 to 51 °C.
On to `CNCC(=O)N1CCN(C(=O)OC(C)(C)C)CC1`, for which the melting point was 64 to 66 °C.
`CC(NC(=O)CCl)c1ccco1` (stereo not given) had a melting point of 63 to 65 °C.
For the compound `Cc1cc(NC(=O)CSCC(N)C(=O)O)no1` (stereo not given), the melting point was 204 to 206 °C.
To `CCC(=O)Nc1ccc(N)cc1` belongs 82 to 84 °C.
The value for `CC(C)c1nc(C(=O)O)nn1-c1cccc(F)c1` was 93 to 95 °C; that for `CN(C)C(C(=O)O)c1cc(Cl)cc(Cl)c1` (stereo not given) was 170 to 172 °C; that for `S=c1[nH]nnn1-c1ccc(Br)cc1` was 162 to 164 °C.
To `OC(c1ccc[nH]1)C(F)(F)F` (stereo not given) belongs 47 to 49 °C.
As for `O=C(Nc1cc(Cl)ccc1C(=O)O)c1cccs1`, the melting point was in the range of 267 to 269 °C.
The value for `CC1CN(c2ccc(NC(=O)CCl)cc2)CC(C)O1` (stereo not given) was 175 to 177 °C; that for `Cc1c(Br)ccc(C(=O)O)c1N` was 221 to 223 °C.
The value for `COc1ncc(N)cc1C(N)=O` was 144 to 146 °C; that for `CCCCN(C(=O)CCl)c1c(N)n(CCC)c(=O)[nH]c1=O` was 229 to 231 °C.
The value for `COc1ccc(-c2nn(-c3ccccc3)cc2C=CC(=O)O)cc1` was 238 to 240 °C.
Compound `COC(=O)c1ccc(-c2noc(CC(C)(C)C)n2)cc1` came in with a melting point of 114 to 116 °C.
Compound `O=C(Nc1ccccc1C(=O)O)c1ccc(Cl)cc1` came in with a melting point of 208 to 210 °C.
The value for `Nc1ncc(C(=O)O)cc1Cl` was 338 to 340 °C.
In turn, `CNc1ncc([N+](=O)[O-])cc1C#N` yielded a melting point of 181 to 183 °C.
The value for `CC(C)(C)c1nonc1N` was 90 to 92 °C; that for `Cc1nn(CC(F)(F)F)cc1C(=O)O` was 119 to 121 °C; that for `Cc1cc(C)n2nc(O)cc2n1` was 241 to 243 °C.
As for `O=c1cc2c(n[nH]1)CCC2`, the melting point fell in the range of 209 to 211 °C.
The value for `Cc1nn2cc(CCCO)cnc2c1C` was 108 to 110 °C; that for `CCOC(=O)c1c(C)n(C2CCCCC2)c2ccc(O)cc12` was 247 to 249 °C; that for `O=C(O)c1cc(S(=O)(=O)N2CCCCC2)ccc1Cl` was 214 to 216 °C.
Compound `CC(C(=O)O)c1ccc2ccccc2c1` (stereo not given) displayed a melting point of 120 to 122 °C.
The value for `O=C(O)C1=CCCCO1` was 66 to 68 °C; that for `CC(C)(Cc1ccccc1)C(=O)O` was 49 to 51 °C.
To `CC1CC(=O)NC1=O` (stereo not given) belongs 61 to 63 °C.
The value for `Cc1ccc(F)cc1S(=O)(=O)Nc1cccc(C(=O)O)c1` was 215 to 217 °C.
Regarding `O=C1OC(=O)c2cc(Cl)ccc21`, the melting point lay in the range of 96 to 98 °C.
To `CNC(=O)COc1cccc(O)c1` belongs 123 to 125 °C.
In turn, `N#Cc1cccc(C2(C(=O)O)CC2)c1` came in with a melting point of 182 to 184 °C.
As to `Cc1ccc2[nH]nc(C(=O)O)c2c1`, the melting point lay in the range of 273 to 275 °C.
Consider `Cc1cc(N)nn1-c1ccc(Cl)cc1Cl`, for which the melting point lay within 101 to 103 °C.
To `O=C(O)CC1CCCN1Cc1nc2ccccc2c(=O)[nH]1` (stereo not given) belongs 197 to 199 °C; to `CC(=O)CC(=O)Nc1cccc(F)c1`, 81 to 83 °C.
The compound `O=C1Nc2cc(OC(F)(F)F)ccc2C1=O` displayed a melting point of 183 to 185 °C.
To `CCCc1c(C(=O)O)nnn1-c1cccc(Cl)c1` belongs 129 to 131 °C; to `CN(C(=O)c1ccc(Cl)c(N)c1)c1ccccc1`, 120 to 122 °C; to `O=C(O)c1cn(CCOc2ccccc2Cl)c2ccccc12`, 186 to 188 °C.
To `Cn1ccc(N2CCC(N)C2=O)n1` (stereo not given) belongs 141 to 143 °C; to `Cc1cc(C(=O)O)c(C)n1-c1ccc(C#N)cc1`, 249 to 251 °C.
`COc1cc(C)nc(CO)c1` displayed a melting point of 69 to 71 °C.
The value for `N#Cc1cc2ccccn2c1` was 68 to 70 °C; that for `CC(=O)c1cccc(N(S(C)(=O)=O)S(C)(=O)=O)c1` was 185 to 187 °C.
To `Cc1ccc(NC(=O)c2ccccc2)cc1N` belongs 144 to 146 °C.
`O=C(O)Cc1csc(-c2cccc(C(F)(F)F)c2)n1` had a melting point of 109 to 111 °C.
To `CCOC(=O)c1sc2ncc(C(=O)OC)cc2c1N` belongs 213 to 215 °C.
Compound `Oc1c(Cl)c(F)nc(F)c1Cl` gave a melting point of 102 to 104 °C.
Take `O=C(O)c1cc(S)ccc1Br`: the melting point fell in the range of 146 to 148 °C.
To `Nc1nnc(-c2ccccc2Cl)[nH]1` belongs 218 to 220 °C; to `Cc1nnnn1C(Cc1ccccc1)C(=O)O` (stereo not given), 167 to 169 °C; to `COC(=O)c1cc(Oc2ccc(Cl)cc2)ccc1N`, 74 to 76 °C.
Consider `Cc1cc2c(n1-c1cccc(C(F)(F)F)c1)CCCC2=O`, for which the melting point was in the range of 121 to 123 °C.
`O=S(=O)(c1ccc(F)cc1)N1CCNCC1` came in with a melting point of 112 to 114 °C.
To `Cn1cnn(-c2ccc(N)cc2)c1=O` belongs 159 to 161 °C; to `Nc1c(F)ccc(Cl)c1C(=O)O`, 161 to 163 °C; to `CC(=O)c1c(C)nc2sccn12`, 132 to 134 °C.
For the compound `O=C1CCc2cc(C(=O)c3c(F)cccc3F)ccc2N1`, the melting point was 248 to 250 °C.
`COc1ccc(C)nc1N`: the melting point was 87 to 89 °C.
Regarding `COc1cc(OC)cc(C(=O)N2CCC(C(=O)O)CC2)c1`, the melting point lay within 164 to 166 °C.
To `Nc1ncc2c(n1)CCN(Cc1ccccc1)C2` belongs 179 to 181 °C; to `Clc1ccc(C(Cl)c2ccc(Cl)cc2)cc1`, 57 to 59 °C.
Turning to `Cc1cc(C=O)c(C)n1C1CC1`, the melting point is 71 to 75 °C.
The value for `O=C(O)c1cc(S(=O)(=O)Cl)c(Br)cc1Br` was 185 to 187 °C; that for `CCCOc1ccc(C(F)(F)F)cc1NC(=O)CCl` was 73 to 75 °C.
The value for `CN(C)S(=O)(=O)c1ccc2c(c1)nc(CCC(=O)O)n2C` was 205 to 209 °C; that for `N#CCc1ccccc1CC(=O)O` was 99 to 101 °C.
The value for `NS(=O)(=O)c1c(Cl)nc2ccccn12` was 174 to 176 °C; that for `CC(C)(C)OC(=O)NNC(=O)C(F)(F)F` was 119 to 121 °C; that for `O=C(O)C(=O)NCc1ccc(F)cc1` was 134 to 136 °C.
Consider `COc1ccc(Br)cc1NC(=O)C1CCC1`, for which the melting point lay in the range of 84 to 86 °C.
Turning to `O=C(CCl)N(C1CCCC1)C1CCS(=O)(=O)C1` (stereo not given), the melting point was < 17 °C.
To `C=CCOc1ccc(C(F)(F)F)cc1C(=O)O` belongs 58 to 60 °C; to `Cc1nn(CCO)c2ncc(Br)cc12`, 110 to 112 °C; to `CCNS(=O)(=O)c1ccc(C(=O)O)cc1`, 219 to 221 °C.
The value for `NC(=O)c1cc(OC2CCNCC2)ccn1` was 129 to 131 °C.
